Where two headings read alike, the source gives them in different places. Where a SMILES comes first, the peptide text is derived from it. Where no end group is shown, it is not given here. The star is where a group is joined. X1 = CC(C)(S)CNCCN(CCCCC(=O)*)CC(C)(C)S

Data set [1] is described as follows: Scintigraphic imaging and biodistribution of Tc-99m labeled peptides in E. coli-infected rabbits. In kind it is in vivo, New Zealand white rabbits. As to conditions: rabbit, in vivo, iv. How it is done:
(§1) After 24 h, the animals were sedated by i.m. injection of ketamine and xylazine, and then injected i.v. with Tc-99m labeled peptide (≤150 μg, 2-10 mCi). The animals were positioned supine in the field of view of a gamma camera (LEAP collimator/photopeaked for Tc-99m) and imaged over the first hour post-injection, and then at approximately 1 h intervals over the next three hours post injection. Animals were allowed to recover between image acquisitions and re-anesthetized as needed.
(§2) Upon completion of the final imaging, each animal was sacrificed by overdose of phenobarbital i.v. and dissected to obtain samples of blood and of infected and control muscle tissue. The tissue samples were weighed, and along with a standard amount of the injected dose, were counted using a gamma counter, and the percent injected dose (per gram of tissue) remaining in the tissues was determined. Ratios of percent of injected dose per gram of infected versus non-infected muscle tissue, and of infected muscle tissue versus blood, were calculated for each peptide. Scintiphotos of whole body and leg images of a rabbit injected with a Tc-99m labeled reagent of the invention, having the formula

Data set [2] has as its system sites of infection (E. coli, left calf muscle). The data set is described as above. As to conditions: for Ratio of Infected/Blood / Ratio of Infected/Control: ratio of % ID/g; for Ratio of Infected/Blood: infected muscle tissue versus blood; for Ratio of Infected/Control: infected versus non-infected muscle tissue; for Infected Muscle (% ID/g): Tc-99m labeled peptide i.v. (≤150 μg, 2-10 mCi), 24 h after i.m. E. coli inoculation, tissue taken after final imaging, percent injected dose per gram tissue; for Blood (% ID/g) / Control Muscle (% ID/g): rabbit, in vivo, iv. It counts as in vivo, New Zealand white rabbits. As for the experimental part:
as §1, §2

As for `CC[C@H](C)[C@H](NC(=O)[C@H](CCCCN)NC(=O)[C@H](CCCCN)NC(=O)[C@H](Cc1ccc(O)cc1)NC(=O)[C@H](CC(C)C)NC(=O)[C@@H]1CCCN1C(=O)CNC(=O)CNC(=O)CCCCN(CCNCC(C)(C)S)CC(C)(C)S)C(=O)N[C@H](C(=O)N[C@@H](CCCCN)C(=O)N[C@@H](CCCCN)C(=O)N[C@@H](CC(C)C)C(=O)N[C@@H](CC(C)C)C(=O)N[C@@H](CCC(=O)O)C(=O)N[C@@H](CO)C(=O)O)[C@@H](C)CC` [[BAT].GGPLYKKIIKKLLES] (X1-GGPLYKKIIKKLLES-OH; N-terminus and C-terminus assumed), the tissue uptake in data set [1] (Blood (% ID/g)) came out at 0.004 %ID/g; in data set [1] (Control Muscle (% ID/g)) it was 0.0003 %ID/g; in data set [1] (Tc-99m labeled peptide i.v. (≤150 μg, 2-10 mCi), 24 h after i.m. E. coli inoculation, tissue taken after final imaging, percent injected dose per gram tissue, read-out: Infected Muscle (% ID/g)) it was 0.0021 %ID/g. The “Ratio of Infected/Blood” value in data set [2] amounted to 0.50. For the same molecule, the “Ratio of Infected/Control” value in data set [2] worked out at 7.00.
Turning to “(Ac.CCAcm GCAcm PLYKKIIKKLLES)2 BSME: PF4-derived peptide dimer linked by bis-succinimidylmethylether, Cys(Acm)-Gly-Cys(Acm) Tc-99m binding moiety”, in data set [2], the “Infected Muscle (% ID/g)” value is on record as 0.0082 % ID/g, the “Blood (% ID/g)” value was found to be 0.010 % ID/g, the “Control Muscle (% ID/g)” value is 0.0011 % ID/g and the “Ratio of Infected/Blood” value was found to be 0.84. For the same molecule, in data set [2], the “Ratio of Infected/Control” value amounted to 7.45.
The corresponding values for “Ac.CGGGPLYKKIIKKLLES: Tc-99m labeled platelet factor 4-derived peptide reagent (Ac-CGGGPLYKKIIKKLLES; also: Tc-99m labeled)” are 0.0235 % ID/g, 0.032 % ID/g, 0.0050 % ID/g, 0.74 and 4.70.
As to “Ac.KKKKKCAcm GCAcm GGPLYKKIIKKLLES: Tc-99m labeled platelet factor 4-derived peptide reagent”, in data set [2], the “Infected Muscle (% ID/g)” value was 0.0061 % ID/g, the “Blood (% ID/g)” value is recorded as 0.006 % ID/g, the “Control Muscle (% ID/g)” value amounted to 0.0019 % ID/g and the “Ratio of Infected/Blood” value stood at 0.93. Moreover, the “Ratio of Infected/Control” value in data set [2] is reported as 5.60. Besides, the “Scintigraphic images (FIG. 1): localization of radioactivity, infected leg versus contralateral leg” value in data set [2] (gamma camera, whole body and leg images of a rabbit injected with the Tc-99m labeled reagent) was “much greater extent of localization of radioactivity in the leg bearing the experimentallly-infected site compared to the non-infected contralateral leg”.

The values above are taken from patent US6107459A, “Technetium-99m labeled peptides for diagnostic imaging” (Diatide, Inc., priority 1995, dated 2000).
